These results are taken from patent publication US20250122207A1, “AP2 ASSOCIATED KINASE 1 INHIBITORS AND USES THEREOF” (Satellos Bioscience Inc., priority 2023, published 2025).

The target of test [1] is T1, AAK1 (amino acids T27-A365) (Homo sapiens, UniProt Q2M2I8).
T1 construct: against AAK1 (amino acids T27-A365); 6His (N, cleaved yes)
The test can be described thus: AAK1 pSENs assay. Type of test: biochemical. To be noted: class symbols; read-out: AAK1 pSENs: EIC50. In a few lines: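 Biotinylated, tag-free AAK1 T27-A365 expressed in E. coli was held at 20 nM in enzyme solution (HEPES pH 7.5, 10 mM MgCl2, DTT, EGTA, Brij35, BSA) and preincubated with compound for 15 min at 25 °C. The reaction was started with an equal volume of substrate solution containing 30 uM AQT0759 peptide and 70 uM ATP. IC50 determined.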

The target in a further test is AAK1 (Homo sapiens, UniProt Q2M2I8). Nature of the test: pAP2M1 cell-based assay (in-cell Western). To be noted: Hela cells co-transfected with AP2M1 and AAK1, 3 hr treatment; class symbols; read-out: AAK1 In-cell Western: IC50. An excerpt:
pAP2M1 Cell-Based Assay (in-Cell Western):
The plate was read on Licor Odyssey CLx imaging system (LICOR) to acquire fluorescence intensity at 700 channel and 800 channel.
Data analysis: Fluorescence intensity at 700 channel served as internal standard and 800 channel were normalized with 700 channel.

The target in test [2] is T2, BIKE (amino acids S38-E345) (K320A, K321A) (Homo sapiens, UniProt Q9NSY1, K320A/K321A).
T2 construct: against BIKE (amino acids S38-E345) (K320A, K321A); 6His (N, cleaved yes)
Nature of the test: BIKE pSENs assay. Type of test: biochemical. To be noted: class symbols; read-out: BIKE pSENs: IC50. As for the experimental part:
The recombinant proteins were independently expressed in Escherichia coli BL21(DE3) cells cultured in Luria-Bertani (LB) medium until OD600 reached 0.6-0.8, then cooled to 15° C. and supplemented with 0.5 mM isopropyl 1-thio-D-galactopyranoside (IPTG) induce protein expression 16 h. Cells were harvested and resuspended in lysis buffer (50 mM HEPES pH 7.5, 500 mM NaCl, 5 mM imidazole, 5% glycerol, 0.5 mM Tris (2-carboxyethyl) phosphine (TCEP), cOmplete Protease Inhibitor Tablet (Roche)) and lysed by microfludics high pressure homogenizer (UH-06, Union-Biotech). Proteins were purified using […] chromatography (His FF column, Bestchrom) and eluted stepwise in binding buffer with 20-300 mM imidazole. Removal of the hexahistidine tag was performed at 4° C. overnight using recombinant TEV protease and reacted with BirA to obtain the corresponding biotinylated-AAK1, BIKE or GAK proteins. Further separated in the reverse Strep column (Strep-Tactin® XT, IBA). The Biotin elution sample was collected containing untagged biotinylated protein was then purified by Ion-exchange chromatography (Mono Q 10/100 GL, Cytiva) and Size-exclusion chromatography (HiLoad 16/600 Superdex 200 pg, Cytiva). The pure protein was stored in a storage buffer 50 mM HEPES (pH 7.5), 300 mM NaCl, 5% glycerol at −80° C. Protein were characterized by SDS-PAGE, LC-MS and aSEC.
BIKE protein was dissolved at 20 nM in 1× enzyme solution (50 mM HEPES pH7.5, 10 mM MgCl2, 1 mM DTT, 1% glycerol, 0.5 mM EGTA, 0.01% Briji35, 0.02% BSA) and 12.5 ul was incubated with 250 nl DMSO or 250 nl compound in DMSO at 25° C. for 15 min. The reaction was started by addition of 12.5 ul of 30 uM AQT0759 (Assayquant, CSKS-AQT0759B) and 40 uM ATP which were diluted in 1× substrate dilution buffer (50 mM HEPES pH7.5, 10 mM MgCl2, 1 mM DTT, 1% glycerol, 0.5 mM EGTA, 0.01% Briji35).

The structures appear in SMILES notation.

T2 sequence (Q9NSY1 38-345 K320A/K321A): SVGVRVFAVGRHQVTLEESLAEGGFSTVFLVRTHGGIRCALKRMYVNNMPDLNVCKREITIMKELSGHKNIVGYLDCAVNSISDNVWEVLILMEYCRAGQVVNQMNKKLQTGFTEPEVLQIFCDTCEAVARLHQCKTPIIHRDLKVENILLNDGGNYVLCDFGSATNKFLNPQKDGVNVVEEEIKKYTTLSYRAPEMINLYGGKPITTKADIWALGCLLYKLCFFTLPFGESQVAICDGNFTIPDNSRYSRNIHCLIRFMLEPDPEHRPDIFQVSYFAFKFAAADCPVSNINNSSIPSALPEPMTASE
T1 sequence (Q2M2I8 27-365): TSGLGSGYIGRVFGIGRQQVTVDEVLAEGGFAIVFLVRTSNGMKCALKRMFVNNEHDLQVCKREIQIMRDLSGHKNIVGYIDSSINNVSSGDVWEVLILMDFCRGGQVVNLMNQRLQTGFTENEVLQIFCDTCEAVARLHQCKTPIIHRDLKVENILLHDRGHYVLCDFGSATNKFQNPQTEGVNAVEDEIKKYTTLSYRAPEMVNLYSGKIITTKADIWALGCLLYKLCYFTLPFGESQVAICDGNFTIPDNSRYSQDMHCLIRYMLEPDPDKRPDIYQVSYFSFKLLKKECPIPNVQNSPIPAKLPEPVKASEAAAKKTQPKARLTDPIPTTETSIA
AAK1, sequence (Q2M2I8 whole entry): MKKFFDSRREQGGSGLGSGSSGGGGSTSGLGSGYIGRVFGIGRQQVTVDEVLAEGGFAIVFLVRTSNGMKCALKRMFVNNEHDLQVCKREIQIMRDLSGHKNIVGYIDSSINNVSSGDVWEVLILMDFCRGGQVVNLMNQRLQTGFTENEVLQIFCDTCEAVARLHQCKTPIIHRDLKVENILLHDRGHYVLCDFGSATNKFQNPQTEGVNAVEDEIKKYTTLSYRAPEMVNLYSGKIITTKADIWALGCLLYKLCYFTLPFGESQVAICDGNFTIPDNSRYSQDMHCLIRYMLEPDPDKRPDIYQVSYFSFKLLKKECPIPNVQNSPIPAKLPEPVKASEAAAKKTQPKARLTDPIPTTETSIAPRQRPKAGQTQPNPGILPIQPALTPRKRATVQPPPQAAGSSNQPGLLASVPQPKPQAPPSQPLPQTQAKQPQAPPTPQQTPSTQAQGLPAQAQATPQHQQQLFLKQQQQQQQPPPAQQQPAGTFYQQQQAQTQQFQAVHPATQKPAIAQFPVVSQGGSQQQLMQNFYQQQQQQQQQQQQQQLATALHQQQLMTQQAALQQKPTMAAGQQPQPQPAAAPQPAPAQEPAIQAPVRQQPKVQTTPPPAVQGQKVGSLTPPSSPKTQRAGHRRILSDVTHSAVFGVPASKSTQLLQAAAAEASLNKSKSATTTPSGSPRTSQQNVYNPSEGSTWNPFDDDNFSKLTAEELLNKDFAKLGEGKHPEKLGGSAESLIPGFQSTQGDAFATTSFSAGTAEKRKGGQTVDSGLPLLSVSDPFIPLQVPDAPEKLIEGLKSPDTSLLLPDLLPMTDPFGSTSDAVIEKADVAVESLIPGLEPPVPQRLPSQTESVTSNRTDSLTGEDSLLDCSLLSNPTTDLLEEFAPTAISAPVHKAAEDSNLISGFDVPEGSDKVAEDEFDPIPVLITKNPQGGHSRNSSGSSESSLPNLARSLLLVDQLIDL

Take `CN1C[C@@H](OC(=O)N2CCN(c3ccn4ncc(-c5cc(F)cnc5OC5CC5)c4n3)CC2)CC1=O` [Compound I-86]: the IC50 in test [1] was in the range of 1 to 50 nM; at AAK1 it was 151 to 500 nM; in test [2], 151 to 500 nM.
`COC(=O)N1CC(Oc2ncccc2-c2cnn3ccc(NCCN(C)C(=O)OC(C)(C)C)nc23)C1` [Compound I-64, Methyl3-[[3-[5-[2-[tert-butoxycarbonyl(methyl)amino]ethylamino]pyrazolo[1,5-a]pyrimidin-3-yl]-2-pyridyl]oxy]azetidine-1-carboxylate]: the IC50 was 1 to 50 nM in test [1], 51 to 150 nM on AAK1 and 51 to 150 nM in test [2].
As for `CN(CCNc1ccn2ncc(-c3cccnc3OC3CN(C(=O)OC(C)(C)C)C3)c2n1)C(=O)OC(C)(C)C` [Compound I-62, Tert-butyl3-[[3-[5-[2-[tert-butoxycarbonyl(methyl)amino]ethylamino]pyrazolo[1,5-a]pyrimidin-3-yl]-2-pyridyl]oxy]azetidine-1-carboxylate], the IC50 in test [1] was 1 to 50 nM; on AAK1 it was > 1500 nM; in test [2], 151 to 500 nM.
In the same order, the values of `CC(C)(C)OC(=O)N1CC(Oc2ncccc2-c2cnn3ccc(N4CCN(C(=O)O[C@@H]5CNC(=O)C5)CC4)nc23)C1` [Compound I-42] are 1 to 50 nM, 501 to 1500 nM and 151 to 500 nM.
Take `CC1(OC(=O)N2CCN(c3ccn4ncc(-c5cccnc5OC5CC5)c4n3)CC2)COC1` [Compound I-2, (3-methyloxetan-3-yl)-4-[3-[2-(cyclopropoxy)-3-pyridyl]pyrazolo[1,5-a]pyrimidin-5-yl]piperazine-1-carboxylate]: the IC50 in test [1] is 1 to 50 nM; at AAK1, 51 to 150 nM; in test [2], 151 to 500 nM.
The corresponding values for `CN1C[C@@H](OC(=O)N2CCN(c3nc4c(-c5cccnc5OC5CCCC5)cnn4cc3F)CC2)CC1=O` [Compound I-121, [(3S)-1-methyl-5-oxo-pyrrolidin-3-yl]-4-[3-[2-(cyclopentoxy)-3-pyridyl]-6-fluoro-pyrazolo[1,5-a]pyrimidin-5-yl]piperazine-1-carboxylate] are 51 to 150 nM, > 1500 nM and 501 to 1500 nM.
In the same order, the values of `O=C1C[C@H](OC(=O)N2CCN(c3ccn4ncc(-c5cccnc5OC5COC5)c4n3)CC2)CN1` [Compound I-25, [(3S)-5-Oxopyrrolidin-3-yl]4-[3-[2-(oxetan-3-yloxy)-3-pyridyl]pyrazolo[1,5-a]pyrimidin-5-yl]piperazine-1-carboxylate] are 1 to 50 nM, > 1500 nM and 151 to 500 nM.
The corresponding values for `CC(=O)N1CC(Oc2ncccc2-c2cnn3ccc(N4CCN(C(=O)O[C@@H]5CNC(=O)C5)CC4)nc23)C1` [Compound I-59, (S)-5-oxopyrrolidin-3-yl 4-(3-(2-((1-acetylazetidin-3-yl)oxy)pyridin-3-yl)pyrazolo[1,5-a]pyrimidin-5-yl)piperazine-1-carboxylate] are 1 to 50 nM, > 1500 nM and 501 to 1500 nM.
For the molecule `COCCN1C[C@@H](OC(=O)N2CCN(c3ccn4ncc(-c5cc(F)cnc5OC5CC5)c4n3)CC2)CC1=O` [Compound I-89], the IC50 in test [1] lay in the range of 1 to 50 nM; on AAK1, 501 to 1500 nM; in test [2], 151 to 500 nM.
For the molecule `CNCCN1C[C@@H](OC(=O)N2CCN(c3ccn4ncc(-c5cccnc5OC5CC5)c4n3)CC2)CC1=O` [Compound I-36, (S)-1-(2-(methylamino)ethyl)-5-(oxopyrrolidin-3-yl)-4-(3-(2-cyclopropoxypyridin-3-yl)pyrazolo[1,5-a]pyrimidin-5-yl)piperazine-1-carboxylate], the values for the IC50 (in test [1]; at AAK1; in test [2]) were 1 to 50 nM, 501 to 1500 nM and 51 to 150 nM, respectively.
On to `CN1CC[C@@](C)(OC(=O)N2CCN(c3ccn4ncc(-c5cccnc5OC5CC5)c4n3)CC2)C1` [Compound I-50, [(3R)-1,3-dimethylpyrrolidin-3-yl]-4-[3-[2-(cyclopropoxy)-3-pyridyl]pyrazolo[1,5-a]pyrimidin-5-yl]piperazine-1-carboxylate], for which the IC50 in test [1] fell in the range of 1 to 50 nM; at AAK1, 151 to 500 nM; in test [2], 501 to 1500 nM.
In the same order, the values of `O=C1C[C@@H](OC(=O)N2CCN(c3ccn4ncc(-c5cccnc5OC5CC5)c4n3)CC2)CN1` [Compound I-10, [(3R)-5-Oxopyrrolidin-3-yl]-4-[3-[2-(cyclopropoxy)-3-pyridyl]pyrazolo[1,5-a]pyrimidin-5-yl]piperazine-1-carboxylate] are 1 to 50 nM, 501 to 1500 nM and 151 to 500 nM.
The corresponding values for `CC1(OC(=O)N2CCN(c3ccn4ncc(-c5cccnc5OC5COC5)c4n3)CC2)COC1` [Compound I-18, (3-Methyloxetan-3-yl)-4-[3-[2-(oxetan-3-yloxy)-3-pyridyl]pyrazolo[1,5-a]pyrimidin-5-yl]piperazine-1-carboxylate] are 1 to 50 nM, 151 to 500 nM and 501 to 1500 nM.
In the same order, the values of `CC(C)(C)OC(=O)N1CCC(N2C[C@@H](OC(=O)N3CCN(c4ccn5ncc(-c6cccnc6OC6CC6)c5n4)CC3)CC2=O)CC1` [Compound I-30, [(3S)-1-(1-tert-Butoxycarbonyl-4-piperidyl)-5-oxo-pyrrolidin-3-yl]4-[3-[2-(cyclopropoxy)-3-pyridyl]pyrazolo[1,5-a]pyrimidin-5-yl]piperazine-1-carboxylate] are 51 to 150 nM, > 1500 nM and 501 to 1500 nM.
On to `C[C@@]1(OC(=O)N2CCN(c3ccn4ncc(-c5cccnc5OC5CC5)c4n3)CC2)CCN(CCO)C1` [Compound I-52, [(3R)-1-(2-hydroxyethyl)-3-methyl-pyrrolidin-3-yl]-4-[3-[2-(cyclopropoxy)-3-pyridyl]pyrazolo[1,5-a]pyrimidin-5-yl]piperazine-1-carboxylate], for which the IC50 in test [1] fell in the range of 1 to 50 nM; at AAK1, 151 to 500 nM; in test [2], 501 to 1500 nM.
`CN1C[C@@H](OC(=O)N2CCN(c3nc4c(-c5cccnc5OC5CC5)cnn4cc3F)CC2)CC1=O` [Compound I-109, [(3S)-1-methyl-5-oxo-pyrrolidin-3-yl]4-[3-[2-(cyclopropoxy)-3-pyridyl]-6-fluoro-pyrazolo[1,5-a]pyrimidin-5-yl]piperazine-1-carboxylate]: the figures for the IC50 (in test [1]; on AAK1; in test [2]) were 1 to 50 nM, 151 to 500 nM and 51 to 150 nM, respectively.
In the same order, the values of `COc1ccccc1-c1cnn2ccc(N3CCN(C(=O)O[C@H]4CO[C@H]5OCC[C@H]54)CC3)nc12` [Compound I-69, (3R,3aS,6aR)-hexahydrofuro[2,3-b]furan-3-yl 4-(3-(2-methoxyphenyl)pyrazolo[1,5-a]pyrimidin-5-yl)piperazine-1-carboxylate] are 1 to 50 nM, 501 to 1500 nM and 151 to 500 nM.
